Experiments:
Test in all cases: cells
NCI-H446 = type: functional, cell-based, Homo sapiens; details: Homo sapiens, NCI-H446
Description: SANGER: Inhibition of human NCI-H446 cell growth in a cell viability assay.

IST-MES1 = type: functional, cell-based, Homo sapiens; details: Homo sapiens, IST-MES1
Description: SANGER: Inhibition of human IST-MES1 cell growth in a cell viability assay.

SBC-1 = type: functional, cell-based, Homo sapiens; details: Homo sapiens, SBC-1
Description: SANGER: Inhibition of human SBC-1 cell growth in a cell viability assay.

NOS-1 = type: functional, cell-based, Homo sapiens; details: Homo sapiens, NOS-1
Description: SANGER: Inhibition of human NOS-1 cell growth in a cell viability assay.

SK-N-FI = type: functional, cell-based, Homo sapiens; details: Homo sapiens, SK-N-FI
Description: SANGER: Inhibition of human SK-N-FI cell growth in a cell viability assay.

EW-3 = type: functional, cell-based, Homo sapiens; details: Homo sapiens, EW-3
Description: SANGER: Inhibition of human EW-3 cell growth in a cell viability assay.

HAL-01 = type: functional, cell-based, Homo sapiens; details: Homo sapiens, HAL-01
Description: SANGER: Inhibition of human HAL-01 cell growth in a cell viability assay.

KE-37 = type: functional, cell-based, Homo sapiens; details: Homo sapiens, KE-37
Description: SANGER: Inhibition of human KE-37 cell growth in a cell viability assay.

L-363 = type: functional, cell-based, Homo sapiens; details: Homo sapiens, L-363
Description: SANGER: Inhibition of human L-363 cell growth in a cell viability assay.

EW-1 = type: functional, cell-based, Homo sapiens; details: Homo sapiens, EW-1
Description: SANGER: Inhibition of human EW-1 cell growth in a cell viability assay.

DSH1 = type: functional, cell-based; details: Homo sapiens
Description: SANGER: Inhibition of human DSH1 cell growth in a cell viability assay.

697 = type: functional, cell-based, Homo sapiens; details: Homo sapiens
Description: SANGER: Inhibition of human 697 cell growth in a cell viability assay.

GCIY = type: functional, cell-based, Homo sapiens; details: Homo sapiens, GCIY
Description: SANGER: Inhibition of human GCIY cell growth in a cell viability assay.

EW-13 = type: functional, cell-based, Homo sapiens; details: Homo sapiens, EW-13; read-out: IC50
Description: SANGER: Inhibition of human EW-13 cell growth in a cell viability assay.

RKO = type: functional, cell-based, Homo sapiens; details: Homo sapiens, RKO
Description: SANGER: Inhibition of human RKO cell growth in a cell viability assay.

CTB-1 = type: functional, cell-based, Homo sapiens; details: Homo sapiens, CTB-1
Description: SANGER: Inhibition of human CTB-1 cell growth in a cell viability assay.

CAS-1 = type: functional, cell-based, Homo sapiens; details: Homo sapiens, CAS-1
Description: SANGER: Inhibition of human CAS-1 cell growth in a cell viability assay.

NCI-H526 = type: functional, cell-based, Homo sapiens; details: Homo sapiens, NCI-H526
Description: SANGER: Inhibition of human NCI-H526 cell growth in a cell viability assay.

COLO-684 = type: functional, cell-based, Homo sapiens; details: Homo sapiens, COLO-684
Description: SANGER: Inhibition of human COLO-684 cell growth in a cell viability assay.

SNU1 = type: functional, cell-based, Homo sapiens; details: Homo sapiens, SNU1
Description: SANGER: Inhibition of human NCI-SNU-1 cell growth in a cell viability assay.

LU-139 = type: functional, cell-based, Homo sapiens; details: Homo sapiens, LU-139
Description: SANGER: Inhibition of human LU-139 cell growth in a cell viability assay.

SK-NEP-1 = type: functional, cell-based, Homo sapiens; details: Homo sapiens, SK-NEP-1
Description: SANGER: Inhibition of human SK-NEP-1 cell growth in a cell viability assay.

MC116 = type: functional, cell-based, Homo sapiens; details: Homo sapiens, MC116
Description: SANGER: Inhibition of human MC116 cell growth in a cell viability assay.

OVCAR-4 = type: functional, cell-based, Homo sapiens; details: Homo sapiens, OVCAR-4
Description: SANGER: Inhibition of human OVCAR-4 cell growth in a cell viability assay.

NMC-G1 = type: functional, cell-based, Homo sapiens; details: Homo sapiens, NMC-G1
Description: SANGER: Inhibition of human NMC-G1 cell growth in a cell viability assay.

BE-13 = type: functional, cell-based, Homo sapiens; details: Homo sapiens, BE-13
Description: SANGER: Inhibition of human BE-13 cell growth in a cell viability assay.

NCI-H747 = type: functional, cell-based, Homo sapiens; details: Homo sapiens, NCI-H747
Description: SANGER: Inhibition of human NCI-H747 cell growth in a cell viability assay.

U-266 = type: functional, cell-based, Homo sapiens; details: Homo sapiens, U-266
Description: SANGER: Inhibition of human U-266 cell growth in a cell viability assay.

ML-2 = type: functional, cell-based, Homo sapiens; details: Homo sapiens, ML-2
Description: SANGER: Inhibition of human ML-2 cell growth in a cell viability assay.

A3-KAW = type: functional, cell-based, Homo sapiens; details: Homo sapiens, A3-KAW
Description: SANGER: Inhibition of human A3-KAW cell growth in a cell viability assay.

KURAMOCHI = type: functional, cell-based, Homo sapiens; details: Homo sapiens, KURAMOCHI
Description: SANGER: Inhibition of human KURAMOCHI cell growth in a cell viability assay.

ES4 = type: functional, cell-based, Homo sapiens; details: Homo sapiens, ES4
Description: SANGER: Inhibition of human ES4 cell growth in a cell viability assay.

P30-OHK = type: functional, cell-based, Homo sapiens; details: Homo sapiens, P30-OHK
Description: SANGER: Inhibition of human P30-OHK cell growth in a cell viability assay.

A4-Fuk = type: functional, cell-based, Homo sapiens; details: Homo sapiens, A4-Fuk
Description: SANGER: Inhibition of human A4-Fuk cell growth in a cell viability assay.

NCI-H82 = type: functional, cell-based, Homo sapiens; details: Homo sapiens, NCI-H82
Description: SANGER: Inhibition of human NCI-H82 cell growth in a cell viability assay.

SW 962 = type: functional, cell-based, Homo sapiens; details: Homo sapiens, SW 962
Description: SANGER: Inhibition of human SW962 cell growth in a cell viability assay.

TGBC1TKB = type: functional, cell-based, Homo sapiens; details: Homo sapiens, TGBC1TKB
Description: SANGER: Inhibition of human TGBC1TKB cell growth in a cell viability assay.

SHP77 = type: functional, cell-based, Homo sapiens, SHP-77; details: Homo sapiens, SHP77
Description: SANGER: Inhibition of human SHP-77 cell growth in a cell viability assay.

DJM-1 = type: functional, cell-based, Homo sapiens; details: Homo sapiens, DJM-1
Description: SANGER: Inhibition of human DJM-1 cell growth in a cell viability assay.

GT3TKB = type: functional, cell-based, Homo sapiens; details: Homo sapiens, GT3TKB
Description: SANGER: Inhibition of human GT3TKB cell growth in a cell viability assay.

JAR = type: functional, cell-based, Homo sapiens; details: Homo sapiens, JAR
Description: SANGER: Inhibition of human JAR cell growth in a cell viability assay.

LAMA-84 = type: functional, cell-based, Homo sapiens; details: Homo sapiens, LAMA-84
Description: SANGER: Inhibition of human LAMA-84 cell growth in a cell viability assay.

OS-RC-2 = type: functional, cell-based, Homo sapiens; details: Homo sapiens, OS-RC-2
Description: SANGER: Inhibition of human OS-RC-2 cell growth in a cell viability assay.

JVM-2 = type: functional, cell-based, Homo sapiens; details: Homo sapiens, JVM-2
Description: SANGER: Inhibition of human JVM-2 cell growth in a cell viability assay.

LB1047-RCC = type: functional, cell-based, Homo sapiens; details: Homo sapiens, LB1047-RCC
Description: SANGER: Inhibition of human LB1047-RCC cell growth in a cell viability assay.

HCE-T = type: functional, cell-based, Homo sapiens; details: Homo sapiens, HCE-T
Description: SANGER: Inhibition of human HCE-T cell growth in a cell viability assay.

RXF 393 = type: functional, cell-based, Homo sapiens; details: Homo sapiens, RXF 393
Description: SANGER: Inhibition of human RXF393 cell growth in a cell viability assay.

TK-10 = type: functional, cell-based, Homo sapiens; details: Homo sapiens, TK-10
Description: SANGER: Inhibition of human TK10 cell growth in a cell viability assay.

ATN-1 = type: functional, cell-based, Homo sapiens; details: Homo sapiens, ATN-1
Description: SANGER: Inhibition of human ATN-1 cell growth in a cell viability assay.

NB10 = type: functional, cell-based, Homo sapiens; details: Homo sapiens, NB10
Description: SANGER: Inhibition of human NB10 cell growth in a cell viability assay.

## COc1cc(N2CCC(N3CCN(C)CC3)CC2)ccc1Nc1ncc(Cl)c(Nc2ccccc2S(=O)(=O)C(C)C)n1 [TAE-684]
NCI-H446
  IC50: > 2000 nM
IST-MES1
  IC50: 988 nM
SBC-1
  IC50: > 2000 nM
NOS-1
  IC50: 103 nM
SK-N-FI
  IC50: > 2000 nM
EW-3
  IC50: > 2000 nM
HAL-01
  IC50: 1150 nM
KE-37
  IC50: > 2000 nM
L-363
  IC50: 824 nM
EW-1
  IC50: 103 nM
DSH1
  IC50: > 2000 nM
697
  IC50: 432 nM
GCIY
  IC50: 955 nM
EW-13
  IC50: > 2000 nM
RKO
  IC50: 1500 nM
CTB-1
  IC50: > 2000 nM
CAS-1
  IC50: 1980 nM
NCI-H526
  IC50: > 2000 nM
COLO-684
  IC50: > 2000 nM
SNU1
  IC50: > 2000 nM
LU-139
  IC50: > 2000 nM
SK-NEP-1
  IC50: 235 nM
MC116
  IC50: > 2000 nM
OVCAR-4
  IC50: 406 nM
NMC-G1
  IC50: 832 nM
BE-13
  IC50: > 2000 nM
NCI-H747
  IC50: 499 nM
U-266
  IC50: 1740 nM
ML-2
  IC50: 490 nM
A3-KAW
  IC50: > 2000 nM
KURAMOCHI
  IC50: 1700 nM
ES4
  IC50: 491 nM
P30-OHK
  IC50: > 2000 nM
A4-Fuk
  IC50: 55.7 nM
NCI-H82
  IC50: > 2000 nM
SW 962
  IC50: 1560 nM
TGBC1TKB
  IC50: > 2000 nM
SHP77
  IC50: > 2000 nM
DJM-1
  IC50: > 2000 nM
GT3TKB
  IC50: > 2000 nM
JAR
  IC50: > 2000 nM
LAMA-84
  IC50: > 2000 nM
OS-RC-2
  IC50: > 2000 nM
JVM-2
  IC50: > 2000 nM
LB1047-RCC
  IC50: 545 nM
HCE-T
  IC50: 1090 nM
RXF 393
  IC50: 558 nM
TK-10
  IC50: 1050 nM
ATN-1
  IC50: 333 nM
NB10
  IC50: 1570 nM

## NC(=O)Nc1cc(-c2cccc(F)c2)sc1C(=O)N[C@H]1CCCNC1 [AZD-7762]
NCI-H446
  IC50: 748 nM
IST-MES1
  IC50: > 2000 nM
SBC-1
  IC50: > 2000 nM
NOS-1
  IC50: 150 nM
SK-N-FI
  IC50: 1490 nM
EW-3
  IC50: 736 nM
HAL-01
  IC50: 210 nM
KE-37
  IC50: 31.4 nM
L-363
  IC50: 73.9 nM
EW-1
  IC50: 189 nM
DSH1
  IC50: 1690 nM
697
  IC50: 111 nM
GCIY
  IC50: 1390 nM
EW-13
  IC50: > 2000 nM
RKO
  IC50: 520 nM
CTB-1
  IC50: 133 nM
CAS-1
  IC50: 1210 nM
NCI-H526
  IC50: 1540 nM
COLO-684
  IC50: 294 nM
SNU1
  IC50: 271 nM
LU-139
  IC50: > 2000 nM
SK-NEP-1
  IC50: 464 nM
MC116
  IC50: 257 nM
OVCAR-4
  IC50: 320 nM
NMC-G1
  IC50: 986 nM
BE-13
  IC50: 201 nM
NCI-H747
  IC50: > 2000 nM
U-266
  IC50: 763 nM
ML-2
  IC50: 125 nM
A3-KAW
  IC50: 88.1 nM
KURAMOCHI
  IC50: > 2000 nM
ES4
  IC50: 32.5 nM
P30-OHK
  IC50: 132 nM
A4-Fuk
  IC50: 74.9 nM
NCI-H82
  IC50: > 2000 nM
SW 962
  IC50: > 2000 nM
TGBC1TKB
  IC50: 1920 nM
SHP77
  IC50: > 2000 nM
DJM-1
  IC50: 886 nM
GT3TKB
  IC50: 1490 nM
JAR
  IC50: 232 nM
LAMA-84
  IC50: 165 nM
OS-RC-2
  IC50: 620 nM
JVM-2
  IC50: > 2000 nM
LB1047-RCC
  IC50: 60.2 nM
HCE-T
  IC50: 442 nM
RXF 393
  IC50: 290 nM
TK-10
  IC50: 379 nM
ATN-1
  IC50: 34.2 nM
NB10
  IC50: 591 nM

## CN(C)CCOc1ccc(-c2nc(-c3ccncc3)c(-c3ccc4c(c3)CC/C4=N\O)[nH]2)cc1 [SB590885]
NCI-H446
  IC50: > 5000 nM
IST-MES1
  IC50: > 5000 nM
SBC-1
  IC50: > 5000 nM
NOS-1
  IC50: > 5000 nM
SK-N-FI
  IC50: > 5000 nM
EW-3
  IC50: 3560 nM
HAL-01
  IC50: 2930 nM
KE-37
  IC50: > 5000 nM
L-363
  IC50: 4690 nM
EW-1
  IC50: > 5000 nM
DSH1
  IC50: > 5000 nM
697
  IC50: > 5000 nM
GCIY
  IC50: > 5000 nM
EW-13
  IC50: > 5000 nM
RKO
  IC50: > 5000 nM
CTB-1
  IC50: > 5000 nM
CAS-1
  IC50: > 5000 nM
NCI-H526
  IC50: > 5000 nM
COLO-684
  IC50: > 5000 nM
SNU1
  IC50: 2900 nM
LU-139
  IC50: > 5000 nM
SK-NEP-1
  IC50: > 5000 nM
MC116
  IC50: > 5000 nM
OVCAR-4
  IC50: > 5000 nM
NMC-G1
  IC50: > 5000 nM
BE-13
  IC50: > 5000 nM
NCI-H747
  IC50: > 5000 nM
U-266
  IC50: > 5000 nM
ML-2
  IC50: > 5000 nM
A3-KAW
  IC50: > 5000 nM
KURAMOCHI
  IC50: > 5000 nM
ES4
  IC50: > 5000 nM
P30-OHK
  IC50: > 5000 nM
A4-Fuk
  IC50: > 5000 nM
NCI-H82
  IC50: > 5000 nM
SW 962
  IC50: > 5000 nM
TGBC1TKB
  IC50: > 5000 nM
SHP77
  IC50: > 5000 nM
DJM-1
  IC50: > 5000 nM
GT3TKB
  IC50: > 5000 nM
JAR
  IC50: > 5000 nM
LAMA-84
  IC50: > 5000 nM
OS-RC-2
  IC50: > 5000 nM
JVM-2
  IC50: > 5000 nM
LB1047-RCC
  IC50: > 5000 nM
HCE-T
  IC50: > 5000 nM
RXF 393
  IC50: > 5000 nM
TK-10
  IC50: > 5000 nM
ATN-1
  IC50: > 5000 nM
NB10
  IC50: > 5000 nM

## CCCCCCCCCCCC1=C(O)C(=O)C=C(O)C1=O [EMBELIN]
NCI-H446
  IC50: > 32000 nM
IST-MES1
  IC50: > 32000 nM
SBC-1
  IC50: 28500 nM
NOS-1
  IC50: 4670 nM
SK-N-FI
  IC50: > 32000 nM
EW-3
  IC50: > 32000 nM
HAL-01
  IC50: 25800 nM
KE-37
  IC50: 3440 nM
L-363
  IC50: 24100 nM
EW-1
  IC50: 28600 nM
DSH1
  IC50: > 32000 nM
697
  IC50: > 32000 nM
GCIY
  IC50: 10100 nM
EW-13
  IC50: 9670 nM
RKO
  IC50: 2010 nM
CTB-1
  IC50: 28000 nM
CAS-1
  IC50: 15300 nM
NCI-H526
  IC50: > 32000 nM
COLO-684
  IC50: 20600 nM
SNU1
  IC50: > 32000 nM
LU-139
  IC50: > 32000 nM
SK-NEP-1
  IC50: 15100 nM
MC116
  IC50: 2820 nM
OVCAR-4
  IC50: 12300 nM
NMC-G1
  IC50: 6970 nM
BE-13
  IC50: 22900 nM
NCI-H747
  IC50: 14300 nM
U-266
  IC50: > 32000 nM
ML-2
  IC50: 12400 nM
A3-KAW
  IC50: 9010 nM
KURAMOCHI
  IC50: 7060 nM
ES4
  IC50: 4520 nM
P30-OHK
  IC50: 6130 nM
A4-Fuk
  IC50: > 32000 nM
NCI-H82
  IC50: > 32000 nM
SW 962
  IC50: 7770 nM
TGBC1TKB
  IC50: 11000 nM
SHP77
  IC50: > 32000 nM
DJM-1
  IC50: 8800 nM
GT3TKB
  IC50: 3620 nM
JAR
  IC50: > 32000 nM
LAMA-84
  IC50: 18500 nM
OS-RC-2
  IC50: 9340 nM
JVM-2
  IC50: > 32000 nM
LB1047-RCC
  IC50: 5800 nM
HCE-T
  IC50: 13100 nM
RXF 393
  IC50: > 32000 nM
TK-10
  IC50: > 32000 nM
ATN-1
  IC50: > 32000 nM
NB10
  IC50: > 32000 nM

Source: ChEMBL document CHEMBL1201861, “Genomics of Drug Sensitity in Cancer screening data, Wellcome Trust Sanger Institute”
